The supplement of paper PMC10307832

Columns and labels:
Test in all cases: relative viability (nuclei count vs DMSO), 5 days (fraction); higher = more cells survive
[1] = compound: CN1C=C(C2=CC=CC=C21)/C=C\3/C4=C(C=CC=N4)NC3=O + COc1cc2c(Oc3ccc(NC(=O)C4(C(=O)Nc5ccc(F)cc5)CC4)cc3F)ccnc2cc1OCCCN1CCOCC1 [Foretinib] (partner 0.25 µM)
Outline: (§1)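 Lung cancer cell lines were pin-tool dosed in 1536-well plates on the day after seeding, with either a lone drug or a fixed anchor-drug dose plus five library-drug doses (not always all listed) in √10 steps. Nuclei were counted on 4× images after 5 days. Relative viability is the ratio of treated-well to vehicle-well nuclei counts, with each value a median of duplicate plates.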

Trametinib + Olaparib = compound: CC(=O)Nc1cccc(-n2c(=O)n(C3CC3)c(=O)c3c(Nc4ccc(I)cc4F)n(C)c(=O)c(C)c32)c1 [Trametinib] + O=C(c1cc(Cc2n[nH]c(=O)c3ccccc23)ccc1F)N1CCN(C(=O)C2CC2)CC1 [Olaparib] (partner 8 µM)
Outline: as §1

[2] = compound: CN1C=C(C2=CC=CC=C21)/C=C\3/C4=C(C=CC=N4)NC3=O + O=C(c1cc(Cc2n[nH]c(=O)c3ccccc23)ccc1F)N1CCN(C(=O)C2CC2)CC1 [Olaparib] (partner 8 µM)
Outline: as §1

Trametinib + Lapatinib = compound: CC(=O)Nc1cccc(-n2c(=O)n(C3CC3)c(=O)c3c(Nc4ccc(I)cc4F)n(C)c(=O)c(C)c32)c1 [Trametinib] + CS(=O)(=O)CCNCc1ccc(-c2ccc3ncnc(Nc4ccc(OCc5cccc(F)c5)c(Cl)c4)c3c2)o1 [Lapatinib] (partner 2 µM)
Outline: as §1

Cell Line	relative viability ([1]; first compound 0.02 µM)	relative viability ([1]; first compound 0.06325 µM)	relative viability ([1]; first compound 0.2 µM)	relative viability ([1]; first compound 0.6325 µM)	relative viability ([1]; first compound 2 µM)	relative viability (Trametinib + Olaparib; first compound 0.0025 µM)	relative viability (Trametinib + Olaparib; first compound 0.007906 µM)	relative viability (Trametinib + Olaparib; first compound 0.025 µM)	relative viability (Trametinib + Olaparib; first compound 0.07906 µM)	relative viability (Trametinib + Olaparib; first compound 0.25 µM)	relative viability ([2]; first compound 0.02 µM)	relative viability ([2]; first compound 0.06325 µM)	relative viability ([2]; first compound 0.2 µM)	relative viability ([2]; first compound 0.6325 µM)	relative viability ([2]; first compound 2 µM)	relative viability (Trametinib + Lapatinib; first compound 0.0025 µM)	relative viability (Trametinib + Lapatinib; first compound 0.007906 µM)	relative viability (Trametinib + Lapatinib; first compound 0.025 µM)	relative viability (Trametinib + Lapatinib; first compound 0.07906 µM)	relative viability (Trametinib + Lapatinib; first compound 0.25 µM)
NCI-H727	0.7	0.664	0.878	0.817	0.665	0.714	0.617	0.565	0.363	0.398	0.76	0.729	0.67	0.688	0.635	0.606	0.415	0.291	0.297	0.216
IA-LM	1.28	1.01	1.12	1.19	1.23	0.826	0.74	0.244	0.242	0.167	0.726	0.726	0.749	0.896	0.802	0.251	0.31	0.101	0.136	0.0905
NCI-H1975	0.87	0.918	0.83	0.697	0.837	0.816	0.633	0.566	0.376	0.322	0.803	0.737	0.674	0.61	0.47	0.816	0.725	0.534	0.385	0.292
NCI-H460	1.09	0.967	1.05	0.986	0.975	0.43	0.265	0.313	0.217	0.0898	0.463	0.417	0.491	0.435	0.367	0.897	0.754	0.42	0.148	0.0413
EPLC-272H	0.564	0.677	0.603	–	0.663	0.628	0.406	0.332	0.322	0.173	1.16	0.706	0.712	–	0.682	0.911	0.56	0.493	0.609	0.125
SK-LU-1	0.596	0.705	0.869	0.713	0.992	0.429	0.364	0.406	0.311	0.274	0.424	0.43	0.406	0.444	0.602	0.791	0.721	0.538	0.426	0.304
NCI-H322M	0.905	0.993	0.887	0.946	1.12	0.652	0.631	0.689	0.518	0.595	0.766	0.717	0.718	0.961	0.923	0.59	0.469	0.443	0.388	0.455
NCI-H2405	1.04	1.03	0.896	1.01	1.05	0.859	0.799	0.83	–	0.53	0.854	0.843	0.729	0.87	0.804	0.992	0.68	0.498	0.499	0.481
NCI-H1666	0.972	0.991	0.938	0.879	1.02	0.735	0.699	0.706	0.755	0.726	0.749	0.735	0.706	0.708	0.714	0.354	0.414	0.405	0.387	0.265
NCI-H358	0.693	0.622	0.815	0.637	0.687	0.47	0.303	0.186	0.185	0.127	0.607	0.534	0.564	0.565	0.507	0.38	0.376	0.309	0.295	0.328
H3255	1.26	0.954	0.72	0.742	0.899	0.559	0.533	0.476	0.461	0.411	0.64	0.554	0.55	0.606	0.602	0.246	0.188	0.269	0.201	0.236
NCI-H2347	1.13	0.76	0.988	0.707	0.748	0.535	0.383	0.372	0.321	0.316	0.491	0.503	0.539	0.565	0.616	0.961	0.56	0.503	0.435	0.452
LK-2	–	–	–	1.23	1.41	0.654	0.619	0.81	0.51	0.293	0.563	0.528	–	0.422	0.66	0.797	0.758	0.822	0.711	0.375
HCC-15	0.947	0.935	1.03	1.01	0.998	0.766	0.39	0.447	0.369	0.3	0.716	0.679	0.733	0.713	0.837	0.806	0.461	0.572	0.328	0.223
SW 1573	0.995	0.925	0.894	0.975	0.822	0.414	0.456	0.407	0.342	0.223	0.5	0.425	0.434	0.453	0.529	0.875	0.925	0.769	0.82	0.56
NCI-H838	0.778	0.853	1.03	0.894	0.92	0.703	0.675	0.622	0.674	0.587	0.695	0.604	0.653	0.765	0.67	0.846	0.933	–	0.634	0.428
